Laboratory results as given in US20250221413A1, “Use and Preparation Method of Sulfoxamyl, and Oxidation System” (priority 2023, published 2025).
Values after ≈ are worked out from the molar mass of the structure shown. Values joined by “and” are separate entries in the source; they are usually repeats but may differ in a detail not shown here. Equal entries are not always repeated. “Also recorded” adds a separate entry of the source.

Experiments:
[1] = tested on: SD rats; assay: Acute oral toxicity test, single oral fixed-dose procedure; format: in vivo
Description: (§1) Materials: the test agent 98% sulfoxamyl technical, batch number 20230708-1, was provided by Ningxia Hugerise Chemical Co., Ltd. Experimental animals: SPF-grade SD rats, half male and half female, weighing 180 g to 220 g, were provided by Jinan Pengyue Experimental Animal Breeding Co., Ltd., license number SCXK (Lu) 20190003. Rearing environment: the rats were housed in an SPF-grade animal room with free access to water and food, a temperature of 20° C. to 25° C., a humidity of 40% to 60%, and a 12 h/12 h light cycle. Feed: conventional pellet feed was provided by Jinan Pengyue Experimental Animal Breeding Co., Ltd.
(§2) The test was conducted in accordance with “Toxicological test methods of pesticides for registration, GB15670.5-2017”, “Acute toxicity test, GB15193.3-2003” and relevant acute toxicity research data.
Methods: a single oral fixed-dose procedure was conducted to preliminarily explore the toxic dose range of sulfoxamyl. LD50 and confidence limits were calculated by using the probability unit method (Bliss method). SD rats were randomly divided into 5 groups, 10 rats in each group, half of them were male and half were female. […] The common ratio value among each dose group was 0.75. After a single oral administration, the mortality rate of the experimental animals was recorded within 24 h and 14 days after administration, while the general condition of the animals was observed, and the food intake and body weight changes were recorded.

[2] = Acute oral toxicity test, probability unit method (Bliss method), LD50 by Probit regression; format: in vivo, SD rats; details: both sexes, Sprague-Dawley, rat, in vivo, po; SD rats, Probit regression
Description: as §1, §2
Methods: a single oral fixed-dose procedure was conducted to preliminarily explore the toxic dose range of sulfoxamyl. LD50 and confidence limits were calculated by using the probability unit method (Bliss method). SD rats were randomly divided into 5 groups, 10 rats in each group, half of them were male and half were female. The dosages administered to each group were 474.61 mg/kg, 632.81 mg/kg, 843.75 mg/kg, 1,125 mg/kg, and 1,500 mg/kg. The common ratio value among each dose group was 0.75. After a single oral administration, the mortality rate of the experimental animals was recorded within 24 h and 14 days after administration, while the general condition of the animals was observed, and the food intake and body weight changes were recorded.
According to the above test dose, number of animals, number of deaths and other data, SPSS statistical software was used to calculate LD50 by Probit regression, and the results are shown in Table 3.

[3] = tested on: Meloidogyne incognita eggs; assay: Inhibitory effect on hatching of Meloidogyne incognita eggs; format: in vivo
Description: Materials: the tested nematodes were collected from three different areas, namely cucumber crops in Dawenkou Town, Tai'an City, Shandong Province, and were all identified as southern root-knot nematodes (Meloidogyne incognita). The diseased roots were washed, cut into small sections of 0.5 cm to 1 cm, rinsed in 1% NaClO solution for about 30 s to 60 s, and rinsed with 200-mesh and 500-mesh sieves to collect nematode eggs for later use.
The agent was 98% sulfoxamyl technical, and the comparison agents were 96% oxamyl technical and 87% fosthiazate technical.

[4] = Acute skin toxicity test (limit test); format: in vivo, SD rats; details: both sexes, rat, in vivo, topical, 2000 mg/kg; SD rats, 24 h exposure, 14 days observation; read-out: acute percutaneous toxicity LD50
Description: as §1, §2
(§3) Method: the sulfoxamyl was ground into powder, passed through a 200-mesh sieve, and fully moistened with 0.5% tragacanth solution to ensure desirable contact between the drug and the skin. The dose limit of the drug's transdermal toxicity was preliminarily determined through a limit test. According to the “Toxicological test methods of pesticides for registration, GB/T 15670.5-2017”, 2,000 mg/kg was selected as the dose limit. 10 SD rats were selected, half male and half female. After removing the fur and preparing the skin on the midline of the rats' backs, the prepared skin area was 36 cm^2 to 40 cm^2. The drug was evenly applied to the fur-removed area and covered and fixed with multiple layers of sterile gauze; after 24 h of exposure to the poison, the residual drug on the skin was removed; the rats were observed once a day for 14 consecutive days, and their poisoning reaction, development process, and death were recorded.

[5] = tested on: SD rats; assay: Acute skin toxicity test (limit test); format: in vivo
Description: as §1, §2, §3

[6] = Half-life test (hydrolysis in neutral distilled water, HPLC); format: physicochemical
Excerpt: A 98% sulfoxamyl sample was quantitatively dissolved in neutral distilled water, and samples were taken and injected at certain time intervals under HPLC detection. Data were collected according to the area normalization method based on the integrated sulfoxamyl peak area ratio.

[7] = Meloidogyne incognita, 168 h, egg hatching, 7 d

Structure (SMILES): CNC(=O)O/N=C(/C(=O)N(C)C)S(C)(=O)=O [Sulfoxamyl, N,N-dimethyl-2-[[[(methylamino)carbonyl]oxy]imino]-2-(methylsulfonyl)acetamide]
- Main clinical symptom ([1]; single oral dose 50 mg/kg): Asymptomatic
- Death count ([1]; single oral dose 50 mg/kg, 50 mg/kg): 0/6
- Death count ([1]; single oral dose 50 mg/kg, listed as sulfoxamyl, 50 mg/kg): no animals die
- Main clinical symptom ([1]; single oral dose 500 mg/kg): Some rats with intense abdominal breathing,
- Death count ([1]; single oral dose 500 mg/kg, 500 mg/kg): 0/6
- Death count ([1]; single oral dose 500 mg/kg, listed as sulfoxamyl, 500 mg/kg): no animals die
- Main clinical symptom ([1]; single oral dose 1000 mg/kg): Intense abdominal breathing,
- Death count ([1]; single oral dose 1000 mg/kg, 1000 mg/kg): 8/10
- Death count ([1]; single oral dose 1000 mg/kg, listed as sulfoxamyl, 1000 mg/kg): 8
- Main clinical symptom ([1]; single oral dose 2000 mg/kg): Intense abdominal breathing,
- Death count ([1]; single oral dose 2000 mg/kg, 2000 mg/kg): 6/6
- Death count ([1]; single oral dose 2000 mg/kg, listed as sulfoxamyl, 2000 mg/kg): all animals
- LD50 at 14 days [2]: 822 mg/kg
- Number of hatched eggs/7 d ([3]; 6.25 mg/L, 7 d): 102 and 92 and 96
- Number of unhatched eggs/7 d ([3]; 6.25 mg/L, 7 d): 31 and 25 and 33
- Number of hatched eggs/7 d ([3]; 12.5 mg/L, 7 d): 83 and 85 and 88
- Number of unhatched eggs/7 d ([3]; 12.5 mg/L, 7 d): 32 and 33 and 40
- Number of hatched eggs/7 d ([3]; 25 mg/L, 7 d): 85 and 79 and 86
- Number of unhatched eggs/7 d ([3]; 25 mg/L, 7 d): 45 and 41 and 38
- Number of hatched eggs/7 d ([3]; 50 mg/L, 7 d): 57 and 55 and 49
- Number of unhatched eggs/7 d ([3]; 50 mg/L, 7 d): 81 and 75 and 77
- Number of hatched eggs/7 d ([3]; 100 mg/L, 7 d): 44 and 40 and 42
- Number of unhatched eggs/7 d ([3]; 100 mg/L, 7 d): 93 and 85 and 88
- IC50 [3, 7]: 59.5 mg/L (≈ 237 µM)
- IC90 [3, 7]: 511 mg/L (≈ 2030 µM)
- inhibitory effect on hatching of nematode eggs, in words ([3]; in vivo): desirable inhibitory effect
- LD50 at 14 days [4]: > 2000 mg/kg
- percutaneous toxicity, in words ([5]; 2,000 mg/kg): no percutaneous toxicity
- Main clinical symptom ([5]; 2,000 mg/kg on skin, 10 SD rats): skin is intact, normal in color, and without redness or swelling
- deaths ([5]; 2,000 mg/kg on skin, 10 SD rats, 14 days): none of the 10 rats die
- Main clinical symptom ([5]; 2,000 mg/kg on skin, 10 SD rats, listed as sulfoxamyl): Normal
- toxicity level (acute percutaneous) ([5]; GB15670-1995 classification): low toxic; also recorded: Low Toxicity
- time to complete decomposition ([6]; neutral conditions): about 8 h
- Changes in ratio of sulfoxamyl peak area under HPLC ([6]; neutral distilled water, 25° C., Time 0 h): 99.86%
- Changes in ratio of sulfoxamyl peak area under HPLC ([6]; neutral distilled water, 25° C., Time 0.5 h): 73%
- Changes in ratio of sulfoxamyl peak area under HPLC ([6]; neutral distilled water, 25° C., Time 1 h): 63%
- Changes in ratio of sulfoxamyl peak area under HPLC ([6]; neutral distilled water, 25° C., Time 2 h): 48%
- Changes in ratio of sulfoxamyl peak area under HPLC ([6]; neutral distilled water, 25° C., Time 3 h): 32%
- Changes in ratio of sulfoxamyl peak area under HPLC ([6]; neutral distilled water, 25° C., Time 4 h): 20%
- Changes in ratio of sulfoxamyl peak area under HPLC ([6]; neutral distilled water, 25° C., Time 5 h): 11%
- Changes in ratio of sulfoxamyl peak area under HPLC ([6]; neutral distilled water, 25° C., Time 6 h): 5%
- Changes in ratio of sulfoxamyl peak area under HPLC ([6]; neutral distilled water, 25° C., Time 7 h): 4%
- Changes in ratio of sulfoxamyl peak area under HPLC ([6]; neutral distilled water, 25° C., Time 8 h): 3%
- half-life ([6]; neutral distilled water, neutral aqueous solution, 25° C.): 2 h
